System: C. difficile spores
Test: Agar-based culture: spore recovery after antimicrobial exposure
Format: cell-based
Details: 350 mg/L, 1 min and 30 min, filtered onto CAF, 48 h
Method: Antimicrobial-spore solutions were mixed, diluted (to sub-MIC) in sterile de-ionised water, filtered onto cellulose acetate filters (CAF, 0.45 μm) and washed. CAF were transferred onto Brazier's agar (pH 7)+5 mg/L lysozyme, and following anaerobic incubation (37° C., 48 h), % C. difficile spores (vs. control) were determined.

## CN[C@H](CC(C)C)C(=O)N[C@H]1C(=O)N[C@@H](CC(N)=O)C(=O)N[C@H]2C(=O)N[C@H]3C(=O)N[C@H](C(=O)N[C@H](C(=O)O)c4cc(O)cc(O)c4-c4cc3ccc4O)[C@H](O[C@H]3C[C@](C)(N)[C@@H](O)[C@H](C)O3)c3ccc(c(Cl)c3)Oc3cc2cc(c3O[C@@H]2O[C@H](CO)[C@@H](O)[C@H](O)[C@H]2O[C@H]2C[C@](C)(NCc3ccc(-c4ccc(Cl)cc4)cc3)[C@@H](O)[C@H](C)O2)Oc2ccc(cc2Cl)[C@H]1O [oritavancin, N-(4-(4-chlorophenyl)benzyl)A82846B]
  Recovery of C. difficile spores following exposure: not recovered

Source: US8629100B2, “Method of inhibiting clostridium difficile by administration of oritavancin” (The Medicines Company, priority 2007, dated 2014)
